Laboratory results: patent publication US20170087125A1, “FLAVONOID COMPOSITIONS FOR THE TREATMENT OF CANCER” (Augusta University Research Institute, Inc., priority 2015, published 2017)
Read-outs that look alike come from different tables or passages of the source.

Experiment: Pharmacokinetics in rat plasma after oral and intravenous administration
Format: in vivo, Sprague Dawley rats
Details: for half-life / AUC / Cmax / Tmax: male, Sprague-Dawley, rat, plasma, 100 mg/kg; for half-life: read-out: t1/2 half-life (converted); for Cmax / Tmax: oral; for Bioavailabilty: rat plasma, ProFine 100 mg/kg (n = 3), oral vs IV
Method: Blood samples were collected at 9 time points, i.e., 0 min, 15 min, 30 min, 60 min, 2 h, 4 h, 8 h, 12 h and 24 h. Plasma levels of Luteolin, Quercetin and Kaempferol were analyzed using HPLC. […]

## O=c1cc(-c2ccc(O)c(O)c2)oc2cc(O)cc(O)c12 [Ingredient 1, 3′,4′,5,7-tetrahydroxyflavone]
  half-life: 136 min
  Cmax: 127 ng/mL
  Tmax: 1 h
  Bioavailabilty: 1.30%
iv, read-out: AUC0.24 (IV)
  AUC: 90100 ng·h/mL
po, read-out: AUC0.24 (Oral)
  AUC: 1170 ng·h/mL

## O=c1c(O)c(-c2ccc(O)c(O)c2)oc2cc(O)cc(O)c12 [Ingredient 2, 3,3′,4′5,7-Penthydroxyflavone]
  half-life: 103 min
  Cmax: 51.9 ng/mL
  Tmax: 1 h
  Bioavailabilty: 0.91%
iv, read-out: AUC0.24 (IV)
  AUC: 27200 ng·h/mL
po, read-out: AUC0.24 (Oral)
  AUC: 248 ng·h/mL

## O=c1c(O)c(-c2ccc(O)cc2)oc2cc(O)cc(O)c12 [Ingredient 3, 3,5,7-trihydroxy-2-(4-hydroxyphenyl)-4H-1-benzopyran-4-one]
  half-life: 147 min
  Cmax: 165 ng/mL
  Tmax: 4 h
  Bioavailabilty: 2.89%
iv, read-out: AUC0.24 (IV)
  AUC: 93800 ng·h/mL
po, read-out: AUC0.24 (Oral)
  AUC: 2710 ng·h/mL
